# From US10857246B2, “Nuclear imaging and radiotherapeutics agents targeting carbonic anhydrase IX and uses thereof” (THE JOHNS HOPKINS UNIVERSITY, priority 2015, dated 2020)
# Several values for one entry are separate records, joined by “and”; a condition that tells them apart may be missing. Identical values can stand only once.
# System: CAIX-expressing SK-RC-52 tumors
# Experiment: Biodistribution in mice bearing SK-RC-52 xenografts
# Type: in vivo
# Conditions: for Biodistribution Bladder / Biodistribution Blood / Biodistribution Brain / Biodistribution Fat / Biodistribution Heart / Biodistribution Kidney / Biodistribution Liver / Biodistribution Lung / Biodistribution Muscle / Biodistribution Pancreas / Biodistribution Small intestine / Biodistribution Spleen / Biodistribution Stomach / Biodistribution Tumor / Tumor/Kidney ratio / Tumor/Blood ratio / Tumor/Muscle ratio: 740 kBq i.v.
# Method: Animal experiments were performed in accordance with protocols approved by the Johns Hopkins Animal Care and Use Committee (ACUC). Six-week-old female NOD/SCID mice were purchased from the Animal Resource Core of the Sidney Kimmel Comprehensive Cancer Center of Johns Hopkins and were subcutaneously injected in the lower left flank or upper right flank with 1×10^6 SK-RC-52 cells in RPMI 1640 GlutaMAX™ media (Life Technologies, Frederick, Md.) supplemented with 1% fetal bovine serum (FBS). Mice were monitored for tumor size and used for SPECT/CT imaging when the size of the tumor reached 100 mm^3.
# Mice bearing SK-RC-52 xenografts at lower left flank were injected intravenously with 740 kBq (20 μCi) of [^111In]XYIMSR-01, or [^177Lu]XYIMSR-01 in 200 μL of PBS. For competitive blocking, same tumor bearing mice were injected with 740 kBq (20 μCi) of [^111In]XYIMSR-01 and 200 nmole of 8 in 200 μL of PBS. At 1 h, 4 h, 8 h, 24 h and 48 h post-injection, mice were sacrificed by cervical dislocation and the blood was immediately collected by cardiac puncture. Heart, lungs, pancreas, spleen, fat, brain, muscle, small intestines, liver, stomach, kidney, urinary bladder, and tumor were collected. Each organ was weighed and the tissue radioactivity was measured with an automated gamma counter (1282 Compugamma CS, Pharmacia/LKBNuclear, Inc., Mt. Waverly, Vic. Australia). The percentage of injected dose per gram of tissue (% ID/g) was calculated by comparison with samples of a standard dilution of the initial dose. All measurements were corrected for radioactive decay.
# Data were expressed as mean±standard deviation (SD). Prism software (GraphPAD, San Diego, Calif.) was used to determine statistical significance. Statistical significance was calculated using a paired t test. P-values <0.0001 were considered significant.
# Mice bearing SK-RC-52 xenografts within the lower left flank were injected intravenously with 740 kBq (20 μCi) of [Al^18F]XYIMSR-04 in 200 μL of PBS. At specific 1 hour time point mentioned in the paper, mice (n=5) were sacrificed by cervical dislocation and the blood was immediately collected by cardiac puncture. Heart, lungs, pancreas, spleen, fat, brain, muscle, small intestines, liver, bone, stomach, kidney, urinary bladder, and tumor were collected. Each organ was weighed and the tissue radioactivity was measured with an automated gamma counter (1282 Compugamma CS, Pharmacia/LKBNuclear, Inc., Mt. Waverly, Vic. Australia). The percentage of injected dose per gram of tissue (% ID/g) was calculated by comparison with samples of a standard dilution of the initial dose. All measurements were corrected for radioactive decay. Data were expressed as mean±standard deviation (SD). Prism software (GraphPAD, San Diego, Calif.) was used to determine statistical significance. Statistical significance was calculated using a paired t test. P-values <0.0001 were considered significant.
# Mice bearing SK-RC-52 xenografts within the upper right flank were injected intravenously with 740 kBq (20 μCi) of [^64Cu]XYIMSR-06 in 200 μL of PBS. For in vivo competition (binding specificity) studies, tumor-bearing mice were injected with 740 kBq (20 μCi) of [^64Cu]XYIMSR-06 and 200 nmole of 8 in 200 μL of PBS concurrently. At specific times after injection (1 h, 4 h, 8 h and 24 h), mice (n=5) were sacrificed by cervical dislocation with blood immediately collected by cardiac puncture. Heart, lungs, pancreas, spleen, fat, brain, muscle, small intestines, liver, stomach, kidney, urinary bladder, and tumor were also collected. Each organ was weighed and the tissue radioactivity was measured with an automated gamma counter (1282 Compugamma CS, Pharmacia/LKBNuclear, Inc., Mt. Waverly, Vic. Australia). The percentage of injected dose per gram of tissue (% ID/g) was calculated by comparison with samples of a standard dilution of the initial dose. All measurements were corrected for radioactive decay. Data were expressed as mean±standard deviation (SD). […]
smiles,measurement,setting,value
CC(CCC(=O)N[C@@H](CC(=O)N[C@@H](CC(=O)N[C@@H](CCCCn1cc(CCCC(=O)Nc2nnc(S(N)(=O)=O)s2)nn1)C(=O)NCCOCCOCCNC(=O)CN1CCN(CC(=O)[O-])CCN(CC(=O)[O-])CCN(CC(=O)[O-])CC1)C(=O)O)C(=O)O)(c1ccc(O)cc1)c1ccc(O)cc1.[111In+3] [[^111In]XYIMSR-01],Biodistribution Bladder,1 h post-injection,4.90 % ID/g
same,Biodistribution Blood,1 h post-injection,1.34 % ID/g
same,Biodistribution Brain,1 h post-injection,1.23 % ID/g
same,Biodistribution Fat,1 h post-injection,1.03 % ID/g
same,Biodistribution Heart,1 h post-injection,5.98 % ID/g
same,Biodistribution Kidney,1 h post-injection,71.26 % ID/g
same,Biodistribution Liver,1 h post-injection,8.36 % ID/g
same,Biodistribution Lung,1 h post-injection,45.85 % ID/g
same,Biodistribution Muscle,1 h post-injection,2.34 % ID/g
same,Biodistribution Pancreas,1 h post-injection,3.81 % ID/g
same,Biodistribution Small intestine,1 h post-injection,9.37 % ID/g
same,Biodistribution Spleen,1 h post-injection,0.52 % ID/g
same,Biodistribution Stomach,1 h post-injection,16.71 % ID/g
same,Biodistribution Tumor,1 h post-injection,26 % ID/g and 26.01 % ID/g
same,Tumor/Kidney ratio,1 h post-injection,0.36
same,Biodistribution Bladder,4 h post-injection,2.68 % ID/g
same,Biodistribution Blood,4 h post-injection,0.65 % ID/g
same,Biodistribution Brain,4 h post-injection,0.45 % ID/g
same,Biodistribution Fat,4 h post-injection,0.42 % ID/g
same,Biodistribution Heart,4 h post-injection,2.91 % ID/g
same,Biodistribution Kidney,4 h post-injection,41.52 % ID/g
same,Biodistribution Liver,4 h post-injection,4.00 % ID/g
same,Biodistribution Lung,4 h post-injection,17.85 % ID/g
same,Biodistribution Muscle,4 h post-injection,1.01 % ID/g
same,Biodistribution Pancreas,4 h post-injection,1.54 % ID/g
same,Biodistribution Small intestine,4 h post-injection,4.27 % ID/g
same,Biodistribution Spleen,4 h post-injection,0.51 % ID/g
same,Biodistribution Stomach,4 h post-injection,7.91 % ID/g
same,Biodistribution Tumor,4 h post-injection,20.83 % ID/g
same,Tumor/Blood ratio,4 h post-injection,31.9
same,Tumor/Kidney ratio,4 h post-injection,0.50
same,Tumor/Muscle ratio,4 h post-injection,21.4
same,Biodistribution Bladder,8 h post-injection,2.28 % ID/g
same,Biodistribution Blood,8 h post-injection,0.48 % ID/g
same,Biodistribution Brain,8 h post-injection,0.59 % ID/g
same,Biodistribution Fat,8 h post-injection,0.45 % ID/g
same,Biodistribution Heart,8 h post-injection,2.61 % ID/g
same,Biodistribution Kidney,8 h post-injection,28.79 % ID/g
same,Biodistribution Liver,8 h post-injection,3.65 % ID/g
same,Biodistribution Lung,8 h post-injection,17.39 % ID/g
same,Biodistribution Muscle,8 h post-injection,1.09 % ID/g
same,Biodistribution Pancreas,8 h post-injection,1.61 % ID/g
same,Biodistribution Small intestine,8 h post-injection,4.31 % ID/g
same,Biodistribution Spleen,8 h post-injection,0.64 % ID/g
same,Biodistribution Stomach,8 h post-injection,8.74 % ID/g
same,Biodistribution Tumor,8 h post-injection,34.0 % ID/g
same,Tumor/Blood ratio,8 h post-injection,77.0
same,Tumor/Kidney ratio,8 h post-injection,3.1
same,Tumor/Muscle ratio,8 h post-injection,34.2
same,All other tumor/organ ratios,24 h,≥ 10
same,Biodistribution Bladder,24 h + block (200 nmole of 8),0.20 % ID/g
same,Biodistribution Blood,24 h + block (200 nmole of 8),0.03 % ID/g
same,Biodistribution Brain,24 h + block (200 nmole of 8),0.03 % ID/g
same,Biodistribution Fat,24 h + block (200 nmole of 8),0.02 % ID/g
same,Biodistribution Heart,24 h + block (200 nmole of 8),0.04 % ID/g
same,Biodistribution Kidney,24 h + block (200 nmole of 8),0.68 % ID/g
same,Biodistribution Liver,24 h + block (200 nmole of 8),0.10 % ID/g
same,Biodistribution Lung,24 h + block (200 nmole of 8),0.12 % ID/g
same,Biodistribution Muscle,24 h + block (200 nmole of 8),0.02 % ID/g
same,Biodistribution Pancreas,24 h + block (200 nmole of 8),0.03 % ID/g
same,Biodistribution Small intestine,24 h + block (200 nmole of 8),0.08 % ID/g
same,Biodistribution Spleen,24 h + block (200 nmole of 8),0.08 % ID/g
same,Biodistribution Stomach,24 h + block (200 nmole of 8),0.14 % ID/g
same,Biodistribution Tumor,24 h + block (200 nmole of 8),1.41 % ID/g
same,Tumor/Blood ratio,24 h + block (200 nmole of 8),45.2
same,Tumor/Kidney ratio,24 h + block (200 nmole of 8),2.1
same,Tumor/Muscle ratio,24 h + block (200 nmole of 8),91.4
same,Uptake to tumors with simultaneously injected non-radioactive competitor 8,24 h and 48 h post injection,~1%
same,Biodistribution Bladder,24 h post-injection,0.74 % ID/g
same,Biodistribution Blood,24 h post-injection,0.15 % ID/g
same,Biodistribution Brain,24 h post-injection,0.71 % ID/g
same,Biodistribution Fat,24 h post-injection,0.28 % ID/g
same,Biodistribution Heart,24 h post-injection,1.16 % ID/g
same,Biodistribution Kidney,24 h post-injection,15.29 % ID/g
same,Biodistribution Liver,24 h post-injection,3.02 % ID/g
same,Biodistribution Lung,24 h post-injection,11.01 % ID/g
same,Biodistribution Muscle,24 h post-injection,0.35 % ID/g
same,Biodistribution Pancreas,24 h post-injection,0.69 % ID/g
same,Biodistribution Small intestine,24 h post-injection,2.11 % ID/g
same,Biodistribution Spleen,24 h post-injection,0.69 % ID/g
same,Biodistribution Stomach,24 h post-injection,3.31 % ID/g
same,Biodistribution Tumor,24 h post-injection,25.62 % ID/g
same,Biodistribution Bladder,48 h + block (200 nmole of 8),0.14 % ID/g
same,Biodistribution Blood,48 h + block (200 nmole of 8),0.03 % ID/g
same,Biodistribution Brain,48 h + block (200 nmole of 8),0.03 % ID/g
same,Biodistribution Fat,48 h + block (200 nmole of 8),0.03 % ID/g
same,Biodistribution Heart,48 h + block (200 nmole of 8),0.04 % ID/g
same,Biodistribution Kidney,48 h + block (200 nmole of 8),0.45 % ID/g
same,Biodistribution Liver,48 h + block (200 nmole of 8),0.13 % ID/g
same,Biodistribution Lung,48 h + block (200 nmole of 8),0.09 % ID/g
same,Biodistribution Muscle,48 h + block (200 nmole of 8),0.02 % ID/g
same,Biodistribution Pancreas,48 h + block (200 nmole of 8),0.03 % ID/g
same,Biodistribution Small intestine,48 h + block (200 nmole of 8),0.08 % ID/g
same,Biodistribution Spleen,48 h + block (200 nmole of 8),0.11 % ID/g
same,Biodistribution Stomach,48 h + block (200 nmole of 8),0.14 % ID/g
same,Biodistribution Tumor,48 h + block (200 nmole of 8),1.22 % ID/g
same,Tumor/Blood ratio,48 h + block (200 nmole of 8),45.4
same,Tumor/Kidney ratio,48 h + block (200 nmole of 8),2.7
same,Tumor/Muscle ratio,48 h + block (200 nmole of 8),75.1
same,Biodistribution Bladder,48 h post-injection,0.38 % ID/g
same,Biodistribution Blood,48 h post-injection,0.06 % ID/g
same,Biodistribution Brain,48 h post-injection,0.41 % ID/g
same,Biodistribution Fat,48 h post-injection,0.25 % ID/g
same,Biodistribution Heart,48 h post-injection,0.84 % ID/g
same,Biodistribution Kidney,48 h post-injection,8.78 % ID/g
same,Biodistribution Liver,48 h post-injection,1.65 % ID/g
same,Biodistribution Lung,48 h post-injection,9.22 % ID/g
same,Biodistribution Muscle,48 h post-injection,0.39 % ID/g
same,Biodistribution Pancreas,48 h post-injection,0.59 % ID/g
same,Biodistribution Small intestine,48 h post-injection,1.22 % ID/g
same,Biodistribution Spleen,48 h post-injection,0.67 % ID/g
same,Biodistribution Stomach,48 h post-injection,1.82 % ID/g
same,Biodistribution Tumor,48 h post-injection,13.92 % ID/g
same,Tumor/Blood ratio,48 h post-injection,212.0
same,Tumor/Kidney ratio,48 h post-injection,1.5
same,Tumor/Muscle ratio,48 h post-injection,52.0
CC(CCC(=O)N[C@@H](CC(=O)N[C@@H](CC(=O)N[C@@H](CCCCn1cc(CCCC(=O)Nc2nnc(S(N)(=O)=O)s2)nn1)C(=O)NCCOCCOCCNC(=O)CN1CCN2CCN(CC1)CC(=O)[O][Al]([18F])[O]C(=O)C2)C(=O)O)C(=O)O)(c1ccc(O)cc1)c1ccc(O)cc1 [[Al^18F]XYIMSR-04],Biodistribution Kidney,1 h post-injection,50.84 ± 2.65 % ID/g
same,Biodistribution Muscle,1 h post-injection,1.74 ± 0.58 % ID/g
same,Biodistribution Small intestine,1 h post-injection,9.59 ± 1.04 % ID/g
same,Tumor/Kidney ratio,1 h post-injection,0.28 and 0.28 ± 0.03
same,Tumor/Muscle ratio,1 h post-injection,9.74 and 9.74 ± 2.9
